Literature values as cited in patent US7476499B2 (priority 2006, dated 2009).

System: poliovirus virions

## Cc1cc(CCCCCCCOc2ccc(C3=NCCO3)cc2)on1 [WIN-51711, Disoxaril]
  mode of action on poliovirus: prevents the uncoating of the viral genome after viral cell entry
